Experimental data from patent publication US11006626B2, “Compounds for protection of cells” (Sulfateq B.V., priority 2012, dated 2021).

Test system: Human Embryo Kidney (HEK) 293 cells
Assay: Hypothermia/rewarming injury of HEK cells, trypan blue viability count
Assay type: cell-based
Details: for viability at 0.01 µM / viability at 0.1 µM / viability at 1 µM / viability at 10 µM / viability at 100 µM / viability at 1000 µM: Homo sapiens, HEK293, 24 h, 24 h at 4° C., 24 h rewarming, read-out: % cells that survived; for viability at 0.01 µM: 10 nM; for viability at 0.1 µM: 100 nM; for viability at 1000 µM: 1 mM; for % cells that survived, Mean: mean over the tested concentrations
Experimental: Human Embryo Kidney (HEK) 293 cells were cultured in DMEM cell culture medium (Life Technologies, 41965-052) supplemented with fetal calf serum, penicillin and streptomycin. Cells were seeded at a density of 0.8-1.2E6 mL-1 in 25 cm2 polystyrene flasks, placed in a 37° C.
The compounds were dissolved in dimethyl sulfoxide (DMSO) to several concentrations. Before commencing experiments, this stock solution was dissolved in pre-warmed DMEM and further diluted to obtain a concentration range from 10 nM-1 mM. Cell culture medium was then replaced by these dilutions and cells were incubated in the presence of the compound for 1 hour. After incubation, lids were closed tightly and flasks were placed in a 4° C. room and cooled for 24 hours. After this cooling period, cells were placed back in the 37° C. incubator with lids closed and were allowed to rewarm for another 24 hours.
After this rewarming period, microscopic images were taken to assess cell morphology (Nikon D5100, Nikon Diaphot-TMD). Cell culture medium was collected and centrifuged (4 minutes, 2000 rpm). The supernatant was collected and pH was immediately measured to prevent equilibration of the pH by the carbonate buffer in the medium, while the pelleted cells were resuspended in 5 mL of PBS. Cells remaining in the flask were washed twice with phosphate buffered saline (PBS) while the washing product was discarded. Subsequently, the cells were trypsinized by addition of 0.5 mL of trypsine and pooled with the resuspended pellet. This cell suspension was then stained at a final concentration of 0.2% trypan blue (Sigma, T8154), followed by manual assessment of viability and cell number on a Bürker-Türk hemocytometer. To conclude the assay, cell culture medium glucose levels were measured (Roche Accutrend Plus) as an indication of metabolic activity. All of these steps were performed with care to prevent mechanical stress to influence or alter the viability of the cells after cooling.
The amount represents the % cells that survived. […] In the control, the same procedure was applied to two badges of HEK cells.

In the case of `Cc1c(C)c2c(c(C)c1O)CCC(C)(C(=O)NCCC#N)O2` (stereo not shown) [SUL - 123, N-(2-cyanoethyl)-6-hydroxy-2,5,7,8-tetramethylchroman-2-carboxamide], the viability at 0.01 µM is reported as 68.4%, the viability at 0.1 µM is reported as 90.5% and the viability at 1 µM is reported as 83.2%. It also gave a viability at 10 µM of 88.4%, a viability at 100 µM of 88.2% and a viability at 1000 µM of 0.75%. For the same molecule, the “% cells that survived, Mean” value was 70%.
For `Cc1c(C)c2c(c(C)c1O)CCC(C)(C(=O)N1CCN(CCOCCO)CC1)O2` (stereo not shown) [SUL - 122, (6-hydroxy-2,5,7,8-tetramethylchroman-2-yl)(4-(2-(2-hydroxyethoxy)ethyl)piperazin-1-yl)methanone], the viability at 0.01 µM was 5.15%, the viability at 0.1 µM was 22.5% and the viability at 1 µM was 85.6%. It also gave a viability at 10 µM of 85.2%, a viability at 100 µM of 88.5% and a viability at 1000 µM of 55.6%. The “% cells that survived, Mean” value was 57%.
`Cc1c(C)c2c(c(C)c1O)CC[C@@](C)(C(=O)O)O2` [SUL - 84, (S)-6-hydroxy-2,5,7,8-tetramethylchroman-2-carboxylic acid] was tested, and the viability at 0.1 µM was 6.22%, the viability at 1 µM was 19.8% and the viability at 10 µM was 70.1%. For the same molecule, the viability at 100 µM was 95.7%, the viability at 1000 µM was 94.5% and the “% cells that survived, Mean” value was 57%.
For `Cc1c(C)c2c(c(C)c1O)CCC(C)(C(=O)Nc1ccc(F)cc1)O2` (stereo not shown) [SUL - 106, N-(4-fluorophenyl)-6-hydroxy-2,5,7,8-tetramethylchroman-2-carboxamide], the viability at 0.01 µM was 77.8%, the viability at 0.1 µM was 76.9% and the viability at 1 µM was 63.2%. The viability at 10 µM was 68.8%, the viability at 100 µM was 55.6% and the viability at 1000 µM was 0%. For the same molecule, the “% cells that survived, Mean” value was 57%.
Work on `CCCCNC(=O)C1(C)CCc2c(C)c(O)c(C)c(C)c2O1` (stereo not shown) [SUL - 91, N-butyl-6-hydroxy-2,5,7,8-tetramethylchroman-2-carboxamide] yielded a viability at 0.1 µM of 2.28%, a viability at 1 µM of 82.4% and a viability at 10 µM of 89.5%. For the same molecule, the viability at 100 µM was 87.5%, the viability at 1000 µM was 0% and the “% cells that survived, Mean” value was 52%.
For `Cc1c(C)c2c(c(C)c1O)CCC(C)(CN1CCCCC1)O2` (stereo not shown) [SUL - 130, 2,5,7,8-tetramethyl-2-(piperidin-1-ylmethyl)chroman-6-ol], the viability at 0.01 µM was 0%, the viability at 0.1 µM was 12.7% and the viability at 1 µM was 85.7%. The viability at 10 µM was 89.6%, the viability at 100 µM was 86.5% and the viability at 1000 µM was 1.49%. The “% cells that survived, Mean” value was 46%.
With `CC(C)=CCC/C(C)=C/CNC(=O)C1(C)CCc2c(C)c(O)c(C)c(C)c2O1` (stereo not shown) [SUL - 93, (E)-N-(3,7-dimethylocta-2,6-dien-1-yl)-6-hydroxy-2,5,7,8-tetramethylchroman-2-carboxamide] the viability at 0.1 µM was 97%, the viability at 1 µM was 96.1% and the viability at 10 µM was 84%. The viability at 100 µM was 21.7%, the viability at 1000 µM was 8% and the “% cells that survived, Mean” value was 61%.
In the case of `Cc1c2c(c(C(C)C)c(O)c1C(C)C)CCC(C)(C(=O)N1CCNCC1)O2` (stereo not shown) [SUL - 137, (6-hydroxy-5,7-diisopropyl-2,8-dimethylchroman-2-yl)(piperazin-1-yl)methanone], the viability at 0.01 µM is reported as 78.2%, the viability at 0.1 µM is reported as 86.1% and the viability at 1 µM is reported as 93.9%. The viability at 10 µM was 90.9%, the viability at 100 µM was 78.7% and the viability at 1000 µM was 0.53%. For the same molecule, the “% cells that survived, Mean” value was 71%.
In the case of `COC(=O)c1ccc(NC(=O)C2(C)CCc3c(C)c(O)c(C)c(C)c3O2)cc1` (stereo not shown) [SUL - 107, methyl 4-(6-hydroxy-2,5,7,8-tetramethylchroman-2-carboxamido)benzoate], the viability at 0.01 µM is reported as 4.42%, the viability at 0.1 µM is reported as 95.7% and the viability at 1 µM is reported as 92.7%. For the same molecule, the viability at 10 µM was 94.8%, the viability at 100 µM was 37.6% and the viability at 1000 µM was 28.9%. For the same molecule, the “% cells that survived, Mean” value was 59%.
For `Cc1c(C)c2c(c(C)c1O)CCC(C)(CN[C@H](CO)c1ccccc1)O2` (stereo partly drawn) [SUL - 129, 2-((((S)-2-hydroxy-1-phenylethyl)amino)methyl)-2,5,7,8-tetramethylchroman-6-ol], the viability at 0.01 µM was 0%, the viability at 0.1 µM was 5.65% and the viability at 1 µM was 88.8%. It also gave a viability at 10 µM of 89.9%, a viability at 100 µM of 91.5% and a viability at 1000 µM of 0%. The “% cells that survived, Mean” value was 46%.
`Cc1c(C)c2c(c(C)c1O)CCC(C)(C(=O)NCc1ccc(F)cc1)O2` (stereo not shown) [SUL - 97, N-(4-fluorobenzyl)-6-hydroxy-2,5,7,8-tetramethylchroman-2-carboxamide] gave a viability at 0.1 µM of 0%, a viability at 1 µM of 95.1% and a viability at 10 µM of 96.4%. The viability at 100 µM was 91.6%, the viability at 1000 µM was 5.17% and the “% cells that survived, Mean” value was 58%.
